Experimental data taken from patent publication US11306084B2, “Integrin antagonists” (Saint Louis University, priority 2016, dated 2022).
Where a name gives a salt, the structure may show the parent alone.

Tests used:
[1] = molecular target: T1, Recombinant human integrin ανβ1 (Homo sapiens, UniProt P05556+P06756); experiment: Solid Phase Receptor Assay (SPRA) for ανβ1 function; assay type: binding; conditions: plate-bound human fibronectin; read-out: αvβ1 SPRA IC50
T1 construct: purchased R&D Systems 6579-AV
T1 sequence (P06756 31-992 limits assumed): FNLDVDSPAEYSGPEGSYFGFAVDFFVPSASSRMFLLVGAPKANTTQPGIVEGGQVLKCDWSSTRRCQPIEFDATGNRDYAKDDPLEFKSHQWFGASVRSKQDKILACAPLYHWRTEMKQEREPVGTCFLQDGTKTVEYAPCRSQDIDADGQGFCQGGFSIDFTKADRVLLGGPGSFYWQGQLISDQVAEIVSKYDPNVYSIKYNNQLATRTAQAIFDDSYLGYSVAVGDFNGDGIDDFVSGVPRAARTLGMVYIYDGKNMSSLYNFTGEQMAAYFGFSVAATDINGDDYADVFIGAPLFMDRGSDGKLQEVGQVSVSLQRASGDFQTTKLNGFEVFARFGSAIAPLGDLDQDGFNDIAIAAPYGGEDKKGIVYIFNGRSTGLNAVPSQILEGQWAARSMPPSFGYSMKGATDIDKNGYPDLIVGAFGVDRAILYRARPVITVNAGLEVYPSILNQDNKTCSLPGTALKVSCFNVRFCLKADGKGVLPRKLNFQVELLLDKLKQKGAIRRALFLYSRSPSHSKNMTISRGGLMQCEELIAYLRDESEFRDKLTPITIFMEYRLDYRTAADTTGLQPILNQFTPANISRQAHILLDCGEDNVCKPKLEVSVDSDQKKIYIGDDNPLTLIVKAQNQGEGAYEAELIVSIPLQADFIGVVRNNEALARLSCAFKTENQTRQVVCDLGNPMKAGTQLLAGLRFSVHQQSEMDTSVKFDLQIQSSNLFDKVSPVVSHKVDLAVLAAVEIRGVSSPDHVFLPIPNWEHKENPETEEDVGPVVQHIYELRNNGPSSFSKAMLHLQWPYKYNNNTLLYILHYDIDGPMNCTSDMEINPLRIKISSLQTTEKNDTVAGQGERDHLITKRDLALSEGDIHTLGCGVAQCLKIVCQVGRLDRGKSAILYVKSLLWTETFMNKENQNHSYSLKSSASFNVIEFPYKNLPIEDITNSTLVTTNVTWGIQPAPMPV
T1 sequence (P05556 21-728 limits assumed): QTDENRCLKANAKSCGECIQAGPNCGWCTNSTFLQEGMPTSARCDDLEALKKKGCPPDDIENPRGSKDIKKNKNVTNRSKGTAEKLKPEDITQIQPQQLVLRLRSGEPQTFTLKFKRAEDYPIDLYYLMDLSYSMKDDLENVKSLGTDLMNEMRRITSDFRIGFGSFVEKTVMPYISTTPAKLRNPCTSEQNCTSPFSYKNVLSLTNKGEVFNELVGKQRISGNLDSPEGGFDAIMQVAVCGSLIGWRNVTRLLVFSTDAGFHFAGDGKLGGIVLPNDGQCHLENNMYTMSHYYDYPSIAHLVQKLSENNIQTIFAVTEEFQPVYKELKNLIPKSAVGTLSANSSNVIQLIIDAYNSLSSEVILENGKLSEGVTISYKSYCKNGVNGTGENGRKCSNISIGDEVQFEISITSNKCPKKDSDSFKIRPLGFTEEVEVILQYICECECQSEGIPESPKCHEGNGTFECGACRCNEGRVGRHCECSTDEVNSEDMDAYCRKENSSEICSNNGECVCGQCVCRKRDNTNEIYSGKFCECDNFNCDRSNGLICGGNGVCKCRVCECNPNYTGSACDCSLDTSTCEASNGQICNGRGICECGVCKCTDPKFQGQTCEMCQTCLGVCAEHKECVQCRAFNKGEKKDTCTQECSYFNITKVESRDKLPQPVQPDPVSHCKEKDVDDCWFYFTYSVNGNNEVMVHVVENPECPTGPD

[2] = molecular target: T2, Recombinant human integrin ανβ8 (Homo sapiens, UniProt P06756+P26012); experiment: Solid Phase Receptor Assay (SPRA) for ανβ8 function; assay type: binding; conditions: plate-bound human LAP; read-out: αvβ8 SPRA IC50
T2 construct: purchased R&D Systems 4135-AV
T2 sequence (P06756 31-992 limits assumed): as the sequence (P06756 31-992 limits assumed) above
T2 sequence (P26012 43-684 limits assumed): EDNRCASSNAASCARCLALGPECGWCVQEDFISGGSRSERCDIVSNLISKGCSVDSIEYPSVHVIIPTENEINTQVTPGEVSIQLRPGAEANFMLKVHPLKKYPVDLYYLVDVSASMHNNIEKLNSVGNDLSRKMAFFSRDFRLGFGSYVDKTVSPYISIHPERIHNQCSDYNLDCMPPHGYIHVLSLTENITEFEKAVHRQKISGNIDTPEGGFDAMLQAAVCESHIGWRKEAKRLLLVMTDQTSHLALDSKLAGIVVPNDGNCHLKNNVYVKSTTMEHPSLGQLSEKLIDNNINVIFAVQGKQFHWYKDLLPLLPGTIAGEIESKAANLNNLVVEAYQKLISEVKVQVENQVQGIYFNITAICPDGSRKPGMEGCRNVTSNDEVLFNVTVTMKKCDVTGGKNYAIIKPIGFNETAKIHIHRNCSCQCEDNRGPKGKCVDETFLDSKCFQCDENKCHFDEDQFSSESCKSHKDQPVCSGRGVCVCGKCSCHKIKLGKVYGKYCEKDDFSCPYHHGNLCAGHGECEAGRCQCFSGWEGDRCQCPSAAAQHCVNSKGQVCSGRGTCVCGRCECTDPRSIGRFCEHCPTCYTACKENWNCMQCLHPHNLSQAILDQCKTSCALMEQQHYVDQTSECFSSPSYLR

Compound: Cn1nc(CC(CC(=O)O)c2cc(Br)cc(C(C)(C)C(F)(F)F)c2)cc1OCCc1ccc2c(n1)NCCC2 (stereo not shown) [Example 26, 3-[3-bromo-5-(2,2,2-trifluoro-1,1-dimethyl-ethyl)phenyl]-4-[1-methyl-5-[2-(5,6,7,8-tetrahydro-1,8-naphthyridin-2-yl)ethoxy]pyrazol-3-yl]butanoic Acid]
- IC50 [1]: 6.8 nM
- IC50 [2]: 9.3 nM

Compound: Cn1nc(CC(CC(=O)O)c2cc(C(C)(C)C)cc(C(F)(F)F)c2)cc1OCCc1ccc2c(n1)NCCC2 (stereo not shown) [Example 37, 3-[3-tert-butyl-5-(trifluoromethyl)phenyl]-4-[1-methyl-5-[2-(5,6,7,8-tetrahydro-1,8-naphthyridin-2-yl)ethoxyl]pyrazol-3-yl]butanoic Acid]
- IC50 [1]: 7.5 nM
- IC50 [2]: 18 nM

Compound: Cc1ccc(C(C)(C)C)cc1C(CC(=O)O)Cc1cc(OCCc2ccc3c(n2)NCCC3)n(C)n1 (stereo not shown) [Example 44, 3-(5-tert-butyl-2-methyl-phenyl)-4-[1-methyl-5-[2-(5,6,7,8-tetrahydro-1,8-naphthyridin-2-yl)ethoxy]pyrazol-3-yl]butanoic Acid Trifluoroacetate]
- IC50 [1]: 14 nM
- IC50 [2]: 360 nM

Compound: Cn1nc(CC(CC(=O)O)c2ccc(F)c(C#N)c2)cc1OCCc1ccc2c(n1)NCCC2 (stereo not shown) [Example 7, 3-(3-cyano-4-fluorophenyl)-4-(1-methyl-5-(2-(5,6,7,8-tetrahydro-1,8-naphthyridin-2-yl)ethoxy)-1H-pyrazol-3-yl)butanoic Acid]
- IC50 [1]: 7 nM
- IC50 [2]: 23 nM

Compound: COCC1(c2cc(F)cc(C(CC(=O)O)Cc3cc(OCCc4ccc5c(n4)NCCC5)n(C)n3)c2)CCOCC1 (stereo not shown) [Example 30, 3-(3-fluoro-5-(4-(methoxymethyl)tetrahydro-2H-pyran-4-yl)phenyl)-4-(1-methyl-5-(2-(5,6,7,8-tetrahydro-1,8-naphthyridin-2-yl)ethoxy)-1H-pyrazol-3-yl)butanoic Acid]
- IC50 [1]: 6.6 nM
- IC50 [2]: 81 nM

Compound: Cn1nc(CC(CC(=O)O)c2cccc(C(C)(C)C)c2)cc1OCCc1ccc2c(n1)NCCC2 (stereo not shown) [Example 49, 3-(3-tert-butylphenyl)-4-[1-methyl-5-[2-(5,6,7,8-tetrahydro-1,8-naphthyridin-2-yl)ethoxy]pyrazol-3-yl]butanoic Acid Trifluoroacetate]
- IC50 [1]: 4.4 nM
- IC50 [2]: 73 nM

Compound: Cn1nc(CC(CC(=O)O)c2cc(C(F)(F)F)cc(C(C)(C)C(F)(F)F)c2)cc1OCCc1ccc2c(n1)NCCC2 (stereo not shown) [Example 25, 4-[1-methyl-5-[2-(5,6,7,8-tetrahydro-1,8-naphthyridin-2-yl)ethoxy]pyrazol-3-yl]-3-[3-(2,2,2-trifluoro-1,1-dimethylethyl)-5-(trifluoromethyl)phenyl]butanoic Acid]
- IC50 [1]: 3.1 nM
- IC50 [2]: 12 nM

Compound: COc1ccc(C(CC(=O)O)Cc2cc(OCCc3ccc4c(n3)NCCC4)n(C)n2)cc1F (stereo not shown) [Example 3, 3-(3-fluoro-4-methoxyphenyl)-4-(1-methyl-5-(2-(5,6,7,8-tetrahydro-1,8-naphthyridin-2-yl)-ethoxy)-1H-pyrazol-3-yl)butanoic Acid]
- IC50 [1]: 5 nM
- IC50 [2]: 114 nM

Compound: Cn1nc(CC(CC(=O)O)c2cccc(C#N)c2)cc1OCCc1ccc2c(n1)NCCC2 (stereo not shown) [Example 9, 3-(3-cyanophenyl)-4-(1-methyl-5-(2-(5,6,7,8-tetrahydro-1,8-naphthyridin-2-yl)ethoxy)-1H-pyrazol-3-yl)butanoic Acid]
- IC50 [1]: 9 nM
- IC50 [2]: 62 nM

Compound: Cn1nc(CC(CC(=O)O)c2ccc(Br)c(F)c2)cc1OCCc1ccc2c(n1)NCCC2 (stereo not shown) [Example 4, 3-(4-bromo-3-fluorophenyl)-4-(1-methyl-5-(2-(5,6,7,8-tetrahydro-1,8-naphthyridin-2-yl)ethoxy)-1H-pyrazol-3-yl)butanoic Acid]
- IC50 [1]: 5 nM
- IC50 [2]: 79 nM

Compound: COc1ccc(C(N)=O)cc1C(CC(=O)O)Cc1cc(OCCc2ccc3c(n2)NCCC3)n(C)n1 (stereo not shown) [Example 47, 3-(5-carbamoyl-2-methoxyphenyl)-4-(1-methyl-5-(2-(5,6,7,8-tetrahydro-1,8-naphthyridin-2-yl)ethoxy)-1H-pyrazol-3-yl)butanoic Acid trifluoroacetate]
- IC50 [1]: 4.9 nM
- IC50 [2]: 3.6 nM

Compound: Cn1nc(CC(CC(=O)O)c2cc(Br)cc(C(F)(F)F)c2)cc1OCCc1ccc2c(n1)NCCC2 (stereo not shown) [Example 10, 3-(3-bromo-5-(trifluoromethyl)phenyl)-4-(1-methyl-5-(2-(5,6,7,8-tetrahydro-1,8-naphthyridin-2-yl)ethoxy)-1H-pyrazol-3-yl)butanoic Acid]
- IC50 [1]: 17 nM
- IC50 [2]: 12 nM

Compound: CC(C)c1cc(Br)cc(C(CC(=O)O)Cc2cc(OCCc3ccc4c(n3)NCCC4)n(C)n2)c1 (stereo not shown) [Example 40, 3-(3-bromo-5-isopropyl-phenyl)-4-[1-methyl-5-[2-(5,6,7,8-tetrahydro-1,8-naphthyridin-2-yl)ethoxyl]pyrazol-3-yl]butanoic acid trifluoroacetate]
- IC50 [1]: 6.3 nM
- IC50 [2]: 9 nM

Compound: COc1ccc(C(C)C)cc1C(CC(=O)O)Cc1cc(OCCc2ccc3c(n2)NCCC3)n(C)n1 (stereo not shown) [Example 39, 3-(5-isopropyl-2-methoxyphenyl)-4-(1-methyl-5-(2-(5,6,7,8-tetrahydro-1,8-naphthyridin-2-yl)ethoxy)-1H-pyrazol-3-yl)butanoic Acid Trifluoroacetate]
- IC50 [1]: 3.2 nM
- IC50 [2]: 110 nM
